Laboratory results: patent US20260345596A1, “TREATMENT OF LOCALLY ADVANCED OR METASTATIC UROTHELIAL CARCINOMA WITH ERDAFINITIB” (priority 2023, published 2026)

Legend:
rats = test: 3-month repeat-dose toxicity study, female reproductive organs; settings: exposure less than human AUC at maximum recommended dose
[1] = Excretion after a single oral dose of radiolabeled erdafitinib; settings: for dose excreted: human, in vivo, po
clinical = settings: human, in vivo, po
[2] = test system: FGFR phosphorylation and signaling; test: FGFR phosphorylation and signaling in cell lines expressing FGFR genetic alterations; type: cell-based; settings: cell lines with FGFR genetic alterations

COc1cc(OC)cc(N(CCNC(C)C)c2ccc3ncc(-c4cnn(C)c4)nc3c2)c1 [Erdafitinib, N-(3,5-dimethoxyphenyl)-N′-(1-methylethyl)-N-[3-(1-methyl-1H-pyrazol-4-yl)quinoxalin-6-yl]ethane-1,2-diamine]
Effects on female reproductive organs (rats): showed effects on female reproductive organs (necrosis of the ovarian corpora lutea)
Dose recovered in feces [1]: approximately 69%
Dose recovered in urine [1]: 19%
dose excreted ([1]; Dose recovered in feces as unchanged): 19%
dose excreted ([1]; Dose recovered in urine as unchanged): 13%
CL/F (clinical): 6.03 mL/min
Vd/F (clinical): 29 L
FGFR phosphorylation and signaling [2]: inhibited FGFR phosphorylation and signaling
Solubility in organic solvents (Solubility; organic solvents): practically insoluble, or insoluble to freely soluble in organic solvents
Solubility across the pH range of 1 to 7.4 (Solubility; pH 1 to 7.4): adequate solubility across the pH range of 1 to 7.4
Solubility in aqueous media (Solubility; wide range of pH values): slightly soluble to practically insoluble, or insoluble in aqueous media over a wide range of pH values
